The values below come from ChEMBL document CHEMBL5291721, “A preclinical secondary pharmacology resource illuminates target-adverse drug reaction associations of marketed drugs” (Nat Commun, 2023).

By AC50 is commonly meant the concentration at which the activity in the assay is half-maximal. High values mean activity only at high concentration, low ones activity at low concentration.

Where a SMILES comes first, the peptide text is derived from it.

In assay [1] the target is T1, Adenosine receptor A1 (Homo sapiens, UniProt P30542).
T1 sequence (P30542 whole entry): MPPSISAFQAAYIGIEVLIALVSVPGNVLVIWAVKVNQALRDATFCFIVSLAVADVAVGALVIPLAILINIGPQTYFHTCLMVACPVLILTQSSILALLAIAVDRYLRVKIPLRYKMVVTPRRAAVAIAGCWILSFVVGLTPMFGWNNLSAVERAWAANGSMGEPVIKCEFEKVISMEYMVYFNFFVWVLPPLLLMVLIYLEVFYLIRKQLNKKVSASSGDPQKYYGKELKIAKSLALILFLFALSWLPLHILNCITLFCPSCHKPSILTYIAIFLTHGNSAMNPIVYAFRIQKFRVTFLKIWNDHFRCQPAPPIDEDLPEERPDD

Assay [2] has as its target Beta-1 adrenergic receptor (Homo sapiens, UniProt P08588). Format: functional.
In assay [3] the target is Vasopressin V2 receptor (Homo sapiens, UniProt P30518).
Assay [4] deals with T2, Gastrin/cholecystokinin type B receptor (Homo sapiens, UniProt P32239).
T2 sequence (P32239 whole entry): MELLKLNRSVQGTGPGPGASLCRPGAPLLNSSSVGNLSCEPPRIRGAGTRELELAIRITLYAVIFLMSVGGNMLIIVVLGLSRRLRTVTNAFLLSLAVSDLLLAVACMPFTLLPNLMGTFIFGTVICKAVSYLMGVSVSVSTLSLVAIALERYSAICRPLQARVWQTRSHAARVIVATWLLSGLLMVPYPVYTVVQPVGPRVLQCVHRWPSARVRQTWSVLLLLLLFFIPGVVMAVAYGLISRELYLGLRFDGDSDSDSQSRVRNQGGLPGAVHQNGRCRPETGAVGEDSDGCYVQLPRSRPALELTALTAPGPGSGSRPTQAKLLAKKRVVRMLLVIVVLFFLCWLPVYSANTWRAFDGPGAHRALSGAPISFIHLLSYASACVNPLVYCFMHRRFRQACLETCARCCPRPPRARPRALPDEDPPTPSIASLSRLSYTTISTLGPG

Assay [5] concerns the target T3, Muscarinic acetylcholine receptor M2 (Homo sapiens, UniProt P08172).
T3 sequence (P08172 whole entry): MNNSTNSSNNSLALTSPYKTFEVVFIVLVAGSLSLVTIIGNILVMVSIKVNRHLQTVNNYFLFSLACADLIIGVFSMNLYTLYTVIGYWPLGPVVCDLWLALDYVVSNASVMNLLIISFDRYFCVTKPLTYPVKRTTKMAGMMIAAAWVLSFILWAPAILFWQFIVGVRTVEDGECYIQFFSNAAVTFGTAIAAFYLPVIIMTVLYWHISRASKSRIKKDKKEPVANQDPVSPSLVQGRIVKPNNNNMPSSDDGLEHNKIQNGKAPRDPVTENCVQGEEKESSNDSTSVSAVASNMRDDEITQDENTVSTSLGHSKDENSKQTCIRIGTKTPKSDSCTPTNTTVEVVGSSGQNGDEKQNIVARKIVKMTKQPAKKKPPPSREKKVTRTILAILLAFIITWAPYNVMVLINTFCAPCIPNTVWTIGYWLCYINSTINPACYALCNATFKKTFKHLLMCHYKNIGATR
The assay is classed as functional, cell-based.

The target in assay [6] is Neuronal acetylcholine receptor subunit alpha-4 (Homo sapiens, UniProt P43681).
Assay [7] addresses T4, Estrogen receptor (Homo sapiens, UniProt P03372).
T4 sequence (P03372 whole entry): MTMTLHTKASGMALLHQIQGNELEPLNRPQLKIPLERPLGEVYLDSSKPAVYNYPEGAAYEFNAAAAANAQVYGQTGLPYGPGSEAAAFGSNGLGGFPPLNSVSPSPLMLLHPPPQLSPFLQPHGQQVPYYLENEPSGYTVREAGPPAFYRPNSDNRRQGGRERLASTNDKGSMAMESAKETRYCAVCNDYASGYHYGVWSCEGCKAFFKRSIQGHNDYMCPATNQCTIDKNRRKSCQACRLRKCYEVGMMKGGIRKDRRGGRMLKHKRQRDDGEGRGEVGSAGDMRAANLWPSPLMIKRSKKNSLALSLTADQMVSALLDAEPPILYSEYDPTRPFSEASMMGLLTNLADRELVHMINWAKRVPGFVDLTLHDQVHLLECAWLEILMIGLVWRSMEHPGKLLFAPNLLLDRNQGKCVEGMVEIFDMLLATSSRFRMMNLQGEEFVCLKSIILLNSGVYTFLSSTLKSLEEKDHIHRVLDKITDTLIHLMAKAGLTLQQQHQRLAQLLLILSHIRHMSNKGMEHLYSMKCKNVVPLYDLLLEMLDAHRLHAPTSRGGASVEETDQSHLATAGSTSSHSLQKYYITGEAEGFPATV

Assay [8] addresses T5, 5-hydroxytryptamine receptor 1A (Homo sapiens, UniProt P08908).
T5 sequence (P08908 whole entry): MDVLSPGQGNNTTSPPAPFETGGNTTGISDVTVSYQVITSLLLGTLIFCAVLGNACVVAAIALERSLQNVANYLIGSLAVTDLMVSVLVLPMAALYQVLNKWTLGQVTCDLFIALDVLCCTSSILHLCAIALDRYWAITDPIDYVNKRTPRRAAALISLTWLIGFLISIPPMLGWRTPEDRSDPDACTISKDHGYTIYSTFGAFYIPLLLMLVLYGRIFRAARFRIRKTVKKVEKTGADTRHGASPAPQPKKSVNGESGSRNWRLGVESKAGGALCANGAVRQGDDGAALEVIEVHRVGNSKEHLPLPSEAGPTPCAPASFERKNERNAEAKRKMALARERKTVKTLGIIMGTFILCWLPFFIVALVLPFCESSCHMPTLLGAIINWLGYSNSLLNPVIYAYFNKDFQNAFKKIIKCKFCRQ
The assay is classed as functional, cell-based.

For assay [9], the target named is 3',5'-cyclic-AMP phosphodiesterase 4D (Homo sapiens, UniProt Q08499). The assay is classed as functional.
Assay [10] concerns the target T6, Thromboxane A2 receptor (Homo sapiens, UniProt P21731).
T6 sequence (P21731 whole entry): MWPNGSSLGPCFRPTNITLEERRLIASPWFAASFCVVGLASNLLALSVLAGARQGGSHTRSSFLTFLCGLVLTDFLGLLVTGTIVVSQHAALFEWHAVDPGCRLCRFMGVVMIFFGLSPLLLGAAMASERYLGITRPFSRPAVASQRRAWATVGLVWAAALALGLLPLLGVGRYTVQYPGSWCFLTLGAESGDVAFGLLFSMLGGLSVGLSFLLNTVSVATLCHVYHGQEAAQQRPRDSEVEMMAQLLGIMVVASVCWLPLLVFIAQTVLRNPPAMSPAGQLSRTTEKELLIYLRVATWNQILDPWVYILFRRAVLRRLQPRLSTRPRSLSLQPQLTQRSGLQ

Assay [11] has as its target cGMP-inhibited 3',5'-cyclic phosphodiesterase 3A (Homo sapiens, UniProt Q14432). Format: functional.
Further: assay procedure not described here.

Neuronal acetylcholine receptor subunit alpha-4, sequence (P43681 whole entry): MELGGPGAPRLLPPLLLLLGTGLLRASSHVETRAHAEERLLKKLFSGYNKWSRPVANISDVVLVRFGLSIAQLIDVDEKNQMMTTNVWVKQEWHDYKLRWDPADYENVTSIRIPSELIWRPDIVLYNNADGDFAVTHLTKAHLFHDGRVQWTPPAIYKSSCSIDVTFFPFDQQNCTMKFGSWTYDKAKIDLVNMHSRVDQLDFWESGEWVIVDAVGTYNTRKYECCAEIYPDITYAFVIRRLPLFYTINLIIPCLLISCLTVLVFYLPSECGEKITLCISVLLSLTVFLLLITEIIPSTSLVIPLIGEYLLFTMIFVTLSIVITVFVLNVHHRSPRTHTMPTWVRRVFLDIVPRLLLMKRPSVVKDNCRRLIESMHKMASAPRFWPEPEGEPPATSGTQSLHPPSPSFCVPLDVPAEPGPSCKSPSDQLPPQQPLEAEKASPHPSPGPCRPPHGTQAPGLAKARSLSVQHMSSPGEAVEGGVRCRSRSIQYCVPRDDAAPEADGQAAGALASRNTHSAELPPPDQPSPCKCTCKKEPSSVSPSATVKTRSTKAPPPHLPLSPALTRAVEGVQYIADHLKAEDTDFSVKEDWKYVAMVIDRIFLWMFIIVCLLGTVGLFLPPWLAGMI
Vasopressin V2 receptor, sequence (P30518 whole entry): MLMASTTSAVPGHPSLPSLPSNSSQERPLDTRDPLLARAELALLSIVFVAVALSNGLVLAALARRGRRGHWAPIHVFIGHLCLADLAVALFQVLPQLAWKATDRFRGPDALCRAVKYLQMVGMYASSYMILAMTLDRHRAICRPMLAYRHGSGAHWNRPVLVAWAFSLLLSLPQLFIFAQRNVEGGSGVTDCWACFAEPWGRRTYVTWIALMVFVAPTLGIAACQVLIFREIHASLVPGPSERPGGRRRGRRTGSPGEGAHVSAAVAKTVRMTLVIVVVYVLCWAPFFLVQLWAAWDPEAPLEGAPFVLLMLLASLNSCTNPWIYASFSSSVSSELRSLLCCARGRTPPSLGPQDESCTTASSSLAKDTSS
cGMP-inhibited 3',5'-cyclic phosphodiesterase 3A, sequence (Q14432 whole entry): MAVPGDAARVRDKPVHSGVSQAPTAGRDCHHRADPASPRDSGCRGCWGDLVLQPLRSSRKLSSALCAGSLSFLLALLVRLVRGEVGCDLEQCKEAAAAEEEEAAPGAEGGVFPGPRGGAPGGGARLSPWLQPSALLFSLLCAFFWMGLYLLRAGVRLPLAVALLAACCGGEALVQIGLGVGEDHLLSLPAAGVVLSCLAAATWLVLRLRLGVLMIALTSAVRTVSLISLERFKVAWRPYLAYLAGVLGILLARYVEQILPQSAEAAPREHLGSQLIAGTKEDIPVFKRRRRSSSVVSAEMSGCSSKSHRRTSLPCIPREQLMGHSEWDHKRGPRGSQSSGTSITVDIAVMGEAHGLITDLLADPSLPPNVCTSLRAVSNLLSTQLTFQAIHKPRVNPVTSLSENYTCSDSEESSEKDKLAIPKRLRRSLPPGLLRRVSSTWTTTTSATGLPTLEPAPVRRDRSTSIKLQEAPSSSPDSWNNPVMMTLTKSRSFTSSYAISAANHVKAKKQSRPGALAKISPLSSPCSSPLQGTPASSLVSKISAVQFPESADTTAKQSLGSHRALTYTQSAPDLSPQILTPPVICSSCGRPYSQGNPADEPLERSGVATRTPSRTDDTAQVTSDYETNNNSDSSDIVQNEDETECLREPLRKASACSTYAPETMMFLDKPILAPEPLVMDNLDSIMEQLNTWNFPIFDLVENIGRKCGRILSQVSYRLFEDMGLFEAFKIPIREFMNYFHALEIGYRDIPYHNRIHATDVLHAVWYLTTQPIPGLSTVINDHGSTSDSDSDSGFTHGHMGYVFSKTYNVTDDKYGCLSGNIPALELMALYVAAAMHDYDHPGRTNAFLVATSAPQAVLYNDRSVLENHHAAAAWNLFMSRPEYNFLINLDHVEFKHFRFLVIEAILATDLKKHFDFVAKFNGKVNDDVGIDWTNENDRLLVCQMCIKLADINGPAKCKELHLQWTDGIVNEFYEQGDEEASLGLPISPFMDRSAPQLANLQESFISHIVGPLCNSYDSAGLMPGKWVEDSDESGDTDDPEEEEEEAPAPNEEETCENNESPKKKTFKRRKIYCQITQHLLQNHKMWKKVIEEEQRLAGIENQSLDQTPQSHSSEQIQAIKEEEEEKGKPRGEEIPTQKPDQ
Beta-1 adrenergic receptor, sequence (P08588 whole entry): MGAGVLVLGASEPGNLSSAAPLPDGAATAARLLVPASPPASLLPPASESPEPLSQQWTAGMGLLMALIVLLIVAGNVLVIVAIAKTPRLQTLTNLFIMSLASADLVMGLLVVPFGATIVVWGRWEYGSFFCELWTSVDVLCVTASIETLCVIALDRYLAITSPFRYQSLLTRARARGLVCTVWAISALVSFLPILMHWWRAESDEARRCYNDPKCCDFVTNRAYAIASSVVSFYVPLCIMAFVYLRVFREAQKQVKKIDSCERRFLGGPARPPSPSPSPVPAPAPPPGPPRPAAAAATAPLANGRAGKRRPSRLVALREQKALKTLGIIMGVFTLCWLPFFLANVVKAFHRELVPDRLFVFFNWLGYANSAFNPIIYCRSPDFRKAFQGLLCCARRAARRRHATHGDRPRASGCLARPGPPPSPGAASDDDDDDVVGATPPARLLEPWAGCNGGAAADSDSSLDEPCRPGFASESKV
3',5'-cyclic-AMP phosphodiesterase 4D, sequence (Q08499 whole entry): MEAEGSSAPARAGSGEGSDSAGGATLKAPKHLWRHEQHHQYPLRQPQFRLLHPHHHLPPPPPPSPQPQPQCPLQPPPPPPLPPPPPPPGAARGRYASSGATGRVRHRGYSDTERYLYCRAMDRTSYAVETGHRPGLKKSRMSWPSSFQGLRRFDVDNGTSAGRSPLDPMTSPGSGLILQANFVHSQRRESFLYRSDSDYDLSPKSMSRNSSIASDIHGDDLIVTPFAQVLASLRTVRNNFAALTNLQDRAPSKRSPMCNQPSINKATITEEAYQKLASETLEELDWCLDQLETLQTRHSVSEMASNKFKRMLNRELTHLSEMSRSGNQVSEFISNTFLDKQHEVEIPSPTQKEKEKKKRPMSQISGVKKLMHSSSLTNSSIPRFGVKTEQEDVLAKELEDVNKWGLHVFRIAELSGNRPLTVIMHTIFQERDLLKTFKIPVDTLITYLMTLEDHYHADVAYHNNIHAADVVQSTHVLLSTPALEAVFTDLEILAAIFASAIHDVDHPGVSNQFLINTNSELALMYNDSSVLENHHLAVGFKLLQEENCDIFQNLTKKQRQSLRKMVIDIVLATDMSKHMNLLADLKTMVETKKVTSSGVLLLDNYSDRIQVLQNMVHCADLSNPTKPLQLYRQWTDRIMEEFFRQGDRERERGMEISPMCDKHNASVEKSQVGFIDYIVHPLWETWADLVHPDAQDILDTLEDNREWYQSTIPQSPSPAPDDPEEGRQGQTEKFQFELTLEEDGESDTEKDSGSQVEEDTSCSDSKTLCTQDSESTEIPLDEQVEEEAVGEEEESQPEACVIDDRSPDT

Regarding `C[C@H](N)C(=O)N[C@@H](CCC(N)=O)C(=O)O` [ALANYL GLUTAMINE] (H-Ala-Gln-OH), the AC50 in [1], in assay [2], in assay [3], in assay [4], in [5] and in assay [6] was above 30 µM each time. The AC50 in [7], in [8], in assay [9], in [10] and in assay [11] was above 30 µM in each case.

Turning to `Cc1nnc2n1-c1ccc(Cl)cc1C(c1ccccc1)=NC2` [ALPRAZOLAM], the AC50 in assay [1] is above 30 µM; in assay [2] it was above 10 µM; in [3], above 30 µM; in [4] it was above 30 µM; in assay [5], above 10 µM; in [6] it was above 10 µM. Also, the AC50 in [7] was above 30 µM; in assay [8] it was above 10 µM; in [9] it was above 30 µM; in assay [10] it was above 30 µM; in [11], above 30 µM.

Take `CCN(CC)CCCN(c1ccccc1)C1Cc2ccccc2C1` [APRINDINE]: the AC50 in assay [1], in assay [2], in assay [3], in assay [4], in assay [5] and in assay [6] was above 30 µM each time. For the same compound, the AC50 was above 30 µM in [7]; above 30 µM in assay [8]; above 30 µM in [9]; above 10 µM in assay [10]; above 30 µM in assay [11].

`CCCCOC(=O)c1ccc(N)cc1` [BUTAMBEN]: the AC50 in assay [1], in assay [2], in assay [3], in assay [4], in assay [5] and in [6] was above 30 µM throughout. Besides, the AC50 in [7] was above 30 µM; in [8], above 30 µM; in assay [9] it was 26 µM; in assay [10], above 30 µM; in [11], above 30 µM.

As for `CO/N=C(\C(=O)N[C@@H]1C(=O)N2C(C(=O)O)=C(CSc3nc(C)c(CC(=O)O)s3)CS[C@H]12)c1csc(N)n1` [CEFODIZIME], the AC50 in [1], in [2], in assay [3], in [4], in assay [5] and in assay [6] was above 30 µM in each case. In addition, the AC50 in [7], in assay [8], in [9], in [10] and in assay [11] was above 30 µM throughout.

Take `COc1ccc(C(Cl)=C(c2ccc(OC)cc2)c2ccc(OC)cc2)cc1` [CHLOROTRIANISENE]: the AC50 in assay [1], in assay [2], in [3], in assay [4], in assay [5] and in assay [6] was above 30 µM throughout. The AC50 in [7] is 0.817 µM; in assay [8] it was above 30 µM; in assay [9], above 30 µM; in assay [10] it was above 10 µM; in assay [11] it was above 30 µM.

For `Oc1cc(O)c2c(c1)O[C@H](c1ccc(O)c(O)c1)[C@@H](O)C2` [CIANIDANOL], the AC50 in assay [1] was above 30 µM; in assay [2] it was above 10 µM; in assay [3] it was above 30 µM; in [4], above 30 µM; in [5], above 10 µM; in assay [6], above 10 µM. In addition, the concentration at half-maximal activity (AC50) in assay [7] was above 30 µM; in assay [8], above 10 µM; in assay [9] it was above 30 µM; in [10], above 30 µM; in assay [11] it was above 30 µM.

Regarding `CCCO[C@H]1[C@@H]([C@@H](COCc2ccc(Cl)cc2)OCc2ccc(Cl)cc2)OC(OCC)[C@@H]1O` (stereo partly specified) [CLOBENOSIDE], the AC50 in assay [1], in assay [2], in [3], in assay [4], in assay [5] and in assay [6] was above 30 µM throughout. In addition, the AC50 is above 10 µM in [7]; above 30 µM in assay [8]; above 30 µM in assay [9]; above 30 µM in assay [10]; above 30 µM in assay [11].

Turning to `Nc1nc(Cl)nc2c1ncn2[C@@H]1O[C@H](CO)[C@@H](O)[C@@H]1F` [CLOFARABINE], the AC50 was 2.3 µM in assay [1]; above 30 µM in [2]; above 30 µM in [3]; above 30 µM in assay [4]; above 10 µM in assay [5]; above 30 µM in assay [6]. Further, the AC50 in assay [7] is above 30 µM; in assay [8], above 30 µM; in assay [9], 0.17 µM; in assay [10], above 30 µM; in assay [11], 6.4 µM.

For the compound `O=C1CN=C(c2ccccc2Cl)c2cc([N+](=O)[O-])ccc2N1` [CLONAZEPAM], the AC50 is above 30 µM in assay [1]; above 10 µM in assay [2]; above 30 µM in assay [3]; above 30 µM in assay [4]; above 10 µM in [5]; above 10 µM in assay [6]. For the same compound, the AC50 in assay [7] is above 30 µM; in [8] it was above 10 µM; in [9], above 30 µM; in assay [10] it was above 30 µM; in assay [11] it was above 30 µM.

For the compound `C=C(c1ccccc1OCc1cccc(Cl)c1)n1ccnc1` [CROCONAZOLE], the concentration at half-maximal activity (AC50) in [1] was above 30 µM; in [2] it was above 30 µM; in [3], above 30 µM; in [4], above 30 µM; in [5], above 10 µM; in assay [6], above 10 µM. Further, the concentration at half-maximal activity (AC50) in assay [7] was above 30 µM; in [8], above 10 µM; in assay [9], 7.1 µM; in assay [10], 16.2 µM; in assay [11] it was above 30 µM.
